Values quoted from earlier work in paper PMC5356695, “A phase 1 study of oral ridaforolimus in pediatric patients with advanced solid tumors” (Oncotarget, 2016).

How the values were obtained:
[1] = tested on: advanced soft tissue and bone sarcomas; details: cited from earlier work
[2] = design: method as in PMID 22037923; details: cited from earlier work
[3] = 7 pediatric patients aged 13 to 17 years

## CO[C@H]1C[C@@H]2CC[C@@H](C)[C@@](O)(O2)C(=O)C(=O)N2CCCC[C@H]2C(=O)O[C@H]([C@H](C)C[C@@H]2CC[C@@H](OP(C)(C)=O)[C@H](OC)C2)CC(=O)[C@H](C)/C=C(\C)[C@@H](O)[C@@H](OC)C(=O)[C@H](C)C[C@H](C)/C=C/C=C/C=C/1C [ridaforolimus]
[1]; [3]
  Patients with partial response: 1
  Patients with progressive disease: 2
  Patients with stable disease: 4
[1]; oral, after benefit from preceding chemotherapy
  Reduction of risk of progression or death compared with placebo: 28%
[2]
  Blood–brain barrier passage: crosses the blood–brain barrier
